According to the NIST ThermoML archive (doi:10.1016/j.fluid.2010.07.015):

Test: wn = mass fraction of the nth substance listed
Details: 101 kPa, Radial Heat Flow Method

[Al] [aluminum] + [Sn]
Details | thermal conductivity [W/m/K]
323 K, Crystal, w1 = 0.022 | 98.8
323 K, Crystal, w1 = 0.25 | 139.3
323 K, Crystal, w1 = 0.5 | 191.7
323 K, Crystal, w1 = 0.75 | 235.5
343 K, Crystal, w1 = 0.022 | 97.4
343 K, Crystal, w1 = 0.25 | 136.8
343 K, Crystal, w1 = 0.5 | 185.3
343 K, Crystal, w1 = 0.75 | 233.7
363 K, Crystal, w1 = 0.005 | 83.5
363 K, Crystal, w1 = 0.022 | 93.3
363 K, Crystal, w1 = 0.25 | 135.9
363 K, Crystal, w1 = 0.5 | 180.6
363 K, Crystal, w1 = 0.75 | 228.2
383 K, Crystal, w1 = 0.005 | 79.5
383 K, Crystal, w1 = 0.022 | 92.7
383 K, Crystal, w1 = 0.25 | 132.3
383 K, Crystal, w1 = 0.5 | 177
383 K, Crystal, w1 = 0.75 | 224.4
403 K, Crystal, w1 = 0.005 | 78.7
403 K, Crystal, w1 = 0.022 | 92.9
403 K, Crystal, w1 = 0.25 | 130.5
403 K, Crystal, w1 = 0.5 | 174.6
403 K, Crystal, w1 = 0.75 | 220.9
423 K, Crystal, w1 = 0.005 | 78.5
423 K, Crystal, w1 = 0.022 | 90.5
423 K, Crystal, w1 = 0.25 | 125.4
423 K, Crystal, w1 = 0.5 | 170.6
423 K, Crystal, w1 = 0.75 | 217.6
423 K, Crystal, w1 = 1 | 302.9
443 K, Crystal, w1 = 0.005 | 77.8
443 K, Crystal, w1 = 0.022 | 88.2
443 K, Crystal, w1 = 0.25 | 123.9
443 K, Crystal, w1 = 0.5 | 166.6
443 K, Crystal, w1 = 0.75 | 211.4
463 K, Crystal, w1 = 0.005 | 76.3
463 K, Crystal, w1 = 0.022 | 86.3
463 K, Crystal, w1 = 0.25 | 118
463 K, Crystal, w1 = 0.5 | 160.1
463 K, Crystal, w1 = 0.75 | 207
473 K, Crystal, w1 = 1 | 288.3
483 K, Crystal, w1 = 0.005 | 75.8
483 K, Crystal, w1 = 0.022 | 82.7
483 K, Crystal, w1 = 0.25 | 116.5
483 K, Crystal, w1 = 0.5 | 152.6
483 K, Crystal, w1 = 0.75 | 196.2
493 K, Crystal, w1 = 0.005 | 69.7
493 K, Crystal, w1 = 0.022 | 80.3
493 K, Crystal, w1 = 0.25 | 112.3
493 K, Crystal, w1 = 0.5 | 142
493 K, Crystal, w1 = 0.75 | 188.5
501 K, Liquid, w1 = 0.005 | 73.8
523 K, Crystal, w1 = 1 | 278.6
573 K, Crystal, w1 = 1 | 261.8
623 K, Crystal, w1 = 1 | 255.7
673 K, Crystal, w1 = 1 | 244.8
723 K, Crystal, w1 = 1 | 241.4
773 K, Crystal, w1 = 1 | 238.6
823 K, Crystal, w1 = 1 | 227.4
873 K, Crystal, w1 = 1 | 226.1
923 K, Crystal, w1 = 1 | 208.8
933 K, Liquid, w1 = 1 | 235

[Sn] [tin] + [Al]
thermal conductivity [W/m/K], w2 = 0
Details | 373 K | 393 K | 413 K | 433 K | 453 K | 473 K | 504 K
Crystal | 67.2 | 65.2 | 63.3 | 61.7 | 62.5 | 60.6 | –
Liquid | – | – | – | – | – | – | 67.2
